Laboratory results taken from patent US7655756B2 (Johnson & Johnson Pharmaceutical Research & Development, LLC, priority 2005, dated 2010).
pKd: −log10 of the molar value.

Legend:
ERRβ = molecular target: T1, ERRβ (Homo sapiens, UniProt O95718); assay: ThermoFluor thermal shift assay, ERRβ; type: binding; conditions: 100 μM test compound; 0.1 mg/mL protein, 25 mM HEPES pH 8.0; Tm free protein 47.5 °C; read-out: ΔTm, thermal stabilization of ERRβ
T1 sequence (O95718 208-432 limits assumed): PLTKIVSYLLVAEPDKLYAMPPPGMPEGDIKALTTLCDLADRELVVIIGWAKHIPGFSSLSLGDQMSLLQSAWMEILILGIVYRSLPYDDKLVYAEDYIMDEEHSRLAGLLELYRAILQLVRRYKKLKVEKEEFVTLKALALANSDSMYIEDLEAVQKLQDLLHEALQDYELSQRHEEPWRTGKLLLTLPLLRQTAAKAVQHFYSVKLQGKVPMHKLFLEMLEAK

[1] = molecular target: T2, ligand binding domain of ERRγ (Homo sapiens, UniProt P62508); assay: ThermoFluor thermal shift assay, ERRγ ligand binding domain; conditions: 0.1 mg/mL protein, 25 mM HEPES pH 8.0, Tm free protein 49.6 °C
T2 construct: 6His; made in house; host or cells: E. coli BL21(DE3)
T2 sequence (P62508 229-458): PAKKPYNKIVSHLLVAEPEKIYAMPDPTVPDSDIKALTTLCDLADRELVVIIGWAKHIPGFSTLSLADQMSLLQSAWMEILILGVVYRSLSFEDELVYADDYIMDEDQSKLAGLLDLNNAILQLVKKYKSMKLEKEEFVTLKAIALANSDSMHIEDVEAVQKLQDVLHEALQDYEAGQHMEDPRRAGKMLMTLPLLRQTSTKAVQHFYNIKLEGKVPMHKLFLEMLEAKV
Protocol: The vector was in E. coli BL21(DE3) and cultured in Minimal media (M9) at 37° C. to an OD595 0.6-0.8, followed by induction at 15° C. with 0.4 mM IPTG for 20 hours. The next day, the culture was harvested and lysed in buffer A (Buffer A: 20 mM Tris-HCl, pH 7.5, 0.4 M NaCl and 5 mM Imidazole) using an Emulsiflex-C5 french press (Avestin). Lysates were spun at 40,000×g for 45 minutes to remove insoluble material. The clarified lysate was applied on a Ni-NTA column and eluted with a linear gradient of imidazole. The protein was further purified by applying the eluent on a Superdex 200 HR 10/30 column (Amersham Pharmacia Biotech) equilibrated with Buffer B (Buffer B: 20 mM Tris-HCl pH 7.5, 0.2M NaCl, 1 mM EDTA and 1 mM DTT). […] Fractions were pulled and concentrated to 4 mg/ml and frozen in liquid nitrogen and stored at −80° C.
The ligand binding domain of ERRγ was screened against a library of known estrogen activators and a generic drug library using ThermoFluor®. ThermoFluor® is a miniaturized thermal shift assay, that has been developed for HTS applications; as a secondary assay for confirmation and characterization of hits; and as a functional assay to characterize orphan proteins. ThermoFluor® exploits the well-described phenomenon of ligand induced stabilization of macromolecules. Ligand binding energy adds directly to the ground state energy of a macromolecule and results in increased thermal stability. The degree of stabilization is proportional to the binding affinity of the ligand for the macromolecule.
Assay plates were prepared by dispensing 2 μL of a protein-dye solution and 2 μL of the test compound in a 384-well plate. […] Finally 1 μL of mineral oil was dispensed on top to prevent evaporation during the high throughput screen (HTS). ThermoFluor® is an HTS assay that measures protein unfolding based on fluorescence detection of the denatured form of the protein. The reporter for the protein unfolding event is the environmentally sensitive dye ANS that is incorporated in the screening buffer. During a typical experiment the 384-well plate is heated at a ramping rate of 1° C./min and the thermal unfolding of the protein is monitored at 1° C. intervals by measuring fluorescence changes detected through a CCD camera. Captured images are integrated and a melting curve is generated that relates fluorescence to fraction of unfolded protein as a function of temperature. […] Hits were identified from the screen by measuring an increase in the melting temperature of the protein.
In order to estimate binding affinities, it was taken into account that the oligomeric state of ERRγ which is a dimer (N2), and that of a single ligand (Lf) can interact per monomer subunit with equal affinity. The melting curve for such a system is described by the following three equilibria:
To compare dissociation constants at a common reference temperature, Tref, the following equation was used: […]
In the thermodynamic treatment of the data the following assumptions were made: i) the small ligand interacts only with the folded state of the protein, ii) the reactions are reversible; iii) the unfolding protein reaction is a two-state process and iv) ideal dilute solutions are being used (specific activity for protein and ligands is equal to 1).

ERβ = ERβ (Homo sapiens, UniProt Q92731); assay: ThermoFluor thermal shift assay, ERβ; type: binding
ERRγ-SRC2 complex = molecular target: T3, ERRγ-SRC2 complex (Homo sapiens, UniProt P62508); assay: TR-FRET co-activator recruitment assay; type: biochemical; conditions: for Displacement of co-activator peptide from ERRγ (antagonism), in words: 6 nM ERRγ LBD, 6 nM GST-SRC-2 peptide
T3 construct: made in house; host or cells: E. coli BL21(DE3) (ERRγ LBD)
T3 sequence (P62508 229-458): T2 sequence (P62508 229-458)
Protocol: For FRET measurements, the reaction was buffered in 25 mM Tris pH 8, 2.5 mM Hepes, 20 mM KCl, 1 mM DTT, and 0.05 mg/mL delipidated BSA.
Time-resolved Fluorescence resonance energy transfer (FRET) experiments were performed to examine the functional response of ERRγ ligands.
For FRET measurements, the reaction was buffered in 25 mM Tris pH 8, 2.5 mM Hepes, 20 mM KCl, 1 mM DTT, and 0.05 mg/mL BSA (-lipids). […] Reactions were allowed to reach equilibrium at 25° C. for 4-18 hours before collecting data on the Analyst from LJL Biosystems (Molecular Devices Sunnyvale, Calif.). […] Dose response curves were fitted using a hyperbolic equation and the data reported is the average of three independent experiments.

pBIND-Gal4-ERRγ = assay: Cell based reporter (trans-activation) assay in HEK293E cells; conditions: luciferase reporter, Gal4-ERRγ and pACT-SRC2, 24 hours of compound treatment
Protocol: A cell based reporter assay was used to determine the functional response of the ERRγ hits. Transfections were performed in HEK293E cells that were maintained in DMEM supplemented in glutamine and 10% FBS. Co-transfections of 4 μg of a luciferase reporter plasmid and 4 μg of each pBIND-Gal4-ERRγ and pACT-SRC2 plasmids per T-75 flask were done using Lipofectamine as per manufacturers instructions. Twenty-four hours post-transfection, the cells were seeded in 96-well plates at density of 50,000 cells per well in assay media (DMEM phenol free, 5% charcoal stripped FBS). […] After 24 hours of compound treatment, cells were lysed and treated with the Promega Dual-Glo system. Firefly Luciferase activity was read using a luminescence plate reader, and data were normalized against Renilla luciferase activity. Data were fitted using subroutines available from GraphPad.

Chain of ERβ (Q92731 whole entry, species assumed, the tested form may be a part): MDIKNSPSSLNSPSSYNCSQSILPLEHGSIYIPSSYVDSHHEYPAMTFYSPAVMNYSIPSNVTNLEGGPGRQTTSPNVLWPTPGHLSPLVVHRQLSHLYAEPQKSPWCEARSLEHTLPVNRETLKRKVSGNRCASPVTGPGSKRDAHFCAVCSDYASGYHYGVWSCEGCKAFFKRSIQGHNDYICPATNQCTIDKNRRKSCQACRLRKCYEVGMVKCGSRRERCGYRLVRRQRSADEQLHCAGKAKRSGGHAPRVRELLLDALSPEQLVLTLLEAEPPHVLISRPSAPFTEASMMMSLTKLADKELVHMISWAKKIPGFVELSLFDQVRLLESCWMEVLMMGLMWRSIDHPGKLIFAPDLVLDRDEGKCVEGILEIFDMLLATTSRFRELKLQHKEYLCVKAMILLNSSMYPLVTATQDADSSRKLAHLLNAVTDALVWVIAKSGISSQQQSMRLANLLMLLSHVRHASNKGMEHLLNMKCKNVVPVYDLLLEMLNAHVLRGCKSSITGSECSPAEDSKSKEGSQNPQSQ

Cc1cc(O)ccc1Cl [ClCH3Ph, 4-chloro, 3-methyl phenol]
ΔTm at 100 µM (ERRβ): 0.2 °C | ΔTm, thermal stabilization of ERRγ ([1]; 100 μM test compound): 3.9 °C | ΔTm at 100 µM ([1]; pH 8, read-out: ΔTm, thermal stabilization of ERRγ, 100 μM test compound): 4 to 5.7 °C | pKd (ERβ): 5.52 | ΔTm at 100 µM (ERβ; pH 8, read-out: ΔTm, thermal stabilization of ERβ): 2.4 °C | Enhancement in the affinity of the receptor for co-activator peptide fragments, in words (ERRγ-SRC2 complex): not able to demonstrate | Displacement of co-activator peptide from ERRγ (antagonism), in words (ERRγ-SRC2 complex): neither ligand displaced co-activator peptide | Displacement of co-activator peptide from ERRγ (antagonism), in words (ERRγ-SRC2 complex; listed as ClCh3PH): ineffective | Change in transcriptional activity in trans-activation cellular assay, in words (pBIND-Gal4-ERRγ): not able to demonstrate
